Assays:
hPSC-EPCs = conditions: CHIR supplemented in hPSC-EPCs culture medium; cited from earlier work
[1] = test system: gene-edited PB-TRE-N1ICD 10(+CR2) hPSC-EPCs; assay: Bulk RNA-sequencing of FACS-sorted gene-edited 10(+CR2) hPSC-EPC subpopulations; type: cell-based, human
Experimental: Ten PBS or doxycycline-treated gene-edited PB-TRE-N1ICD hPSC-derived endothelial cell subpopulations obtained via FACS were centrifuged at 200×g for 5 min. Pellets were resuspended TRIzol reagent (Invitrogen) for extraction of total RNA. RNA concentrations were quantified using the Qubit 4 Fluorometer (Invitrogen) and Qubit RNA High Sensitivity Assay Kit (Invitrogen). Purified RNA samples (≥200 ng) were sent to Novogene Corporation (Sacramento, CA) for library preparation and mRNA sequencing, with approximately 40-60 million paired end reads obtained per sample. FASTQ files were uploaded to the Galaxy^43 web platform and processed to generate a raw counts matrix using the publicly available bioinformatics server at usegalaxy.org. We ran FastQC to ensure high Phred quality scores and low percentages (<5%) adapter content (Galaxy). Illumina Universal Adapter sequences were trimmed from raw sequencing reads using Cutadapt (Galaxy). Data were aligned to the hg38 genome model using RNA STAR and raw reads per gene were determined using featureCounts. Differential expression analysis was performed in R using DESeq2^44. Heatmaps containing TPM values were generated using the pheatmap package in R. Comparison of the transcriptomic profile of […] overexpressing EPCs±Dox subpopulations to transcriptomes of established cell and tissue types was performed with […]^45.

[2] = test system: gene-edited PB-TRE-N1ICD 10(+CR2) hPSC-EPCs; assay: Transendothelial electrical resistance (TEER); type: cell-based, human; conditions: Dox-treated edited hPSC-EPCs at end of culture (D15), doxycycline D11-D15
[3] = test system: gene-edited PB-TRE-N1ICD 10(+CR2) hPSC-EPCs; assay: FACS of CD144 (VE-cadherin) subpopulations in gene-edited 10(+CR2) hPSC-EPCs; type: cell-based, human; conditions: doxycycline-treated population, D15
Experimental: Gene-edited PB-TRE-N1ICD hPSC-EPCs were cultured in a 6-well plate with or without doxycycline as described above (n=3* replicates for doxycycline supplemented condition, n=4 replicates for PBS supplemented condition). On D15, cells were isolated with Accutase (incubated 15 mins at 37° C., 1 mL/well), triturated, and quenched through a 40 μm cell strainer into 4× the volume of DMEM (Life Technologies) supplemented with 10% FBS (R&D Systems). An additional well of gene-edited EPCs cultured with PBS was reserved as an isotype control. Unedited hPSCs maintained in E8 medium and unedited hPSC-EPCs cultured for 6 days in hECSR supplemented with 4 μM CHIR were used as an additional negative and positive control, respectively, for FACS. Cell count was quantified using a hemocytometer and cells were centrifuged at 200×g for 5 min. Cells were resuspended in MACS buffer at a concentration of 100 μL/10^6 cells. Cells suspensions were supplemented with CD144-APC or APC-conjugated isotype control antibodies (Table 2) at a 1:50 dilution for at 4° C. for 20 min, protected from light. Cells were washed with 2 mL MACS buffer and centrifuged at 200×g for 5 min. Pellets were resuspended in 400 μL each of MACS buffer supplemented with 1 μg/mL DAPI (Invitrogen) and incubated at 4° C., protected from light.
Cells were sorted using the BD FACSAria III Cell Sorter (BD Biosciences). Gates for high or low CD144-expressing cells were determined based on two negative controls (gene-edited PB-TRE-N1ICD hPSC-derived ECs stained with APC isotype control antibody or unedited hPSCs stained with CD144-APC antibody, both negative for CD144) and one positive control (unedited hPSC-EPCs cultured with CHIR, CD144 high). After establishing gates, live gene-edited PB-TRE-N1ICD hPSC-ECs treated with or without doxycycline were sorted into tubes containing 500 μL MACS buffer and stored at 4° C.

[4] = test system: heterogeneous gene-edited hPSC-EPCs; assay: CD31 flow cytometry in heterogeneous gene-edited hPSC-EPCs, hygromycin/doxycycline timing; type: cell-based, human; conditions: 6 days of hygromycin reselection followed by 4 days of doxycycline treatment
Experimental: To determine CD31 expression in edited hPSC-EPCs treated with doxycycline vs. DPBS (FIG. 15A,B), hPSC-ECs were isolated at day 13, 15, or 17, dissociated with Accutase as previously stated, quenched in DMEM supplemented with 10% FBS through a cell strainer, centrifuged, and resuspended in MACS buffer (100 μL/10^6 cells) supplemented with CD31-APC or APC isotype control antibodies at a 1:50 dilution. Cells were incubated at 4° C. for 20 min, protected from light. Cells were washed with 2 mL MACS buffer and centrifuged at 200×g for 5 min. Pellets were resuspended in 500 μL each of 4% PFA in DPBS and incubated 15 min at room temperature, protected from light. Cells were centrifuged at 200×g for 5 min and pellets were resuspended in 400 μL MACS buffer. Samples were run on an Attune NxT V6 flow cytometer with excitation at 633 nm. APC emission was detected with a 670/14 filter. Data were analyzed with Flow Jo software.

[5] = test system: gene-edited PB-TRE-N1ICD hPSC-EPCs; assay: RT-qPCR of BBB-related genes in gene-edited PB-TRE-N1ICD hPSC-EPCs + CHIR ± doxycycline; type: cell-based, human
Experimental: Gene-edited hPSC-derived EPCs (D5) with high post-MACS purity validated by flow cytometry were cultured on collagen IV-coated plates at approximately 4×10^4 cells/cm^2 in hECSR medium supplemented with various antibiotics, with media changes every other day. […] […] On D15, cells were collected for RT-qPCR quantification of differential gene expression between doxycycline and DPBS-treated gene-edited hPSC-EPCs.
RNA extraction was performed using the Direct-zol RNA Miniprep Kit (Zymo Research). Cells were lysed with 300-600 μL TRIzol reagent (Invitrogen, Waltham, MA) depending on the estimated cell count per sample. Cell lysates were combined with an equal volume of 100% ethanol and transferred to Zymo-Spin IICR spin columns. Columns were incubated with Rnase-free DNase I (Qiagen) to eliminate residual gDNA. Columns were washed with RNA Wash Buffer and Direct-zol RNA Pre-Wash according to Zymo RNA Miniprep Kit protocols. RNA was eluted with RNase-free water and concentration was determined using a NanoDrop 2000 spectrophotometer (Thermo Scientific). 250-1000 ng of RNA was reverse transcribed for 1 h at 37° C. using the OmniScript RT Kit (Qiagen). 1 U/μL RNaseOUT (Life Technologies) was included in the reverse-transcription reactions. Reaction products were diluted to 10 ng/μL. 20 μL qPCR reactions were carried out with 10 ng cDNA and 500 nM each forward and reverse primers (Integrated DNA Technologies, Coralville, IA [Table 1]) using PowerUp SYBR Green Master Mix (Life Technologies) or 1×Taqman Gene Expression Assay probes (Thermo Scientific [Table 1]) using Taqman Fast Advanced Master Mix (Thermo Scientific). Reactions were run on an AriaMx Real-Time PCR System (Agilent Technologies, Santa Clara, CA) using the thermal cycling program corresponding to either IDT primers or Taqman probes. An annealing temperature of 60° C. was used for all reactions.

[6] = test system: gene-edited PB-TRE-N1ICD hPSC-EPCs; assay: Fluorescent albumin accumulation assay in gene-edited PB-TRE-N1ICD hPSC-EPCs; type: cell-based, human; conditions: PBS-treated 10(+CR2) cells, 30 min pretreatment: 3 mM MβCD, 20 µM CPZ or 2 μM rottlerin
Experimental: Fixable, Alexa Fluor 647-conjugated bovine serum albumin (BSA) (Invitrogen) was used as a substrate to estimate total fluid-phase endocytosis. […] Similarly, D6 cultures of HUVECs treated with GFP or N1ICD LV were pre-treated with or without 3 mM MβCD for 30 min at 37° C. Cells were washed once with sterile DPBS and then incubated in hECSR (for hPSC-EPCs) supplemented with 5 μg/mL BSA or 1:1000 diluted DPBS, 1:100 diluted CD144-FITC or FITC isotype control antibody, and 4 μM Hoechst 33342 (Life Technologies) or EGM-2 media (for HUVECs) supplemented with 5 μg/mL BSA or 1:1000 diluted DPBS and 4 μM Hoechst 33342 at 4° C. or 37° C. for 2 h on a rotating platform at 30 rpm, protected from light. Cells were then washed 3 times with 4° C. sterile DPBS to stop the assay and wash away any extracellular BSA. Internalization of fluorescent BSA was visualized using an Eclipse Ti2-E epifluorescence microscope (Nikon, Tokyo, Japan) with a 20× objective.
Flow cytometry was used to quantify accumulated BSA fluorescence within cells. […] FITC emission was detected with a 530/30 filter and AlexaFluor 647 emission was detected with a 670/14 filter. Data were analyzed with Flow Jo software.

[7] = clone 10(+CR2), 6d H+4d D, 1 μg/mL doxycycline vs PBS, D15
[8] = clone 10(+CR2), 6d P+4d D vs PBS control

Cc1c[nH]c(-c2cnc(NCCNc3ccc(C#N)cn3)nc2-c2ccc(Cl)cc2Cl)n1 [CHIR, CHIR99021]
increase in normalized SLC2A1 expression (TPM) (hPSC-EPCs): ~750 fold

C[C@H]1c2cccc(O)c2C(=O)C2=C(O)[C@]3(O)C(=O)C(C(N)=O)=C(O)[C@@H](N(C)C)[C@@H]3[C@@H](O)[C@@H]21 [doxycycline, doxycycline hyclate]
increase in NOTCH1 expression (TPM) ([1]; Dox CD144 hi vs PBS CD144 hi): ~2 fold
increase in NOTCH1 expression (TPM) ([1]; Dox CD144 lo vs PBS CD144 hi): ~7 fold
average TEER [2]: less than 10 Ω·cm^2
cells with high CD144 expression [3]: ~25%
cells with low but not absent CD144 expression [3]: ~65%
CD144+ cells ([3]; live cells): ~90%
percentage of CD31+ cells [4]: ~90%
decrease in CDH5 expression ([5]; clone 3(+Y) hPSC-EPCs, highest doxycycline dose, D11-D15): ~2 fold
downregulation of TJP1 ([5]; clone 10(+CR2), 2d P+4d D+4P vs PBS control): ~2 fold
upregulation in MFSD2A ([5]; clone 10(+CR2), 6d H+4d D and 6d P+4d D vs PBS control (6d H+4d P), D15): 60- to 100 fold
decrease in expression of CDH5 [5, 7]: ~3 fold
increase in MFSD2A expression [5, 7]: ~50 fold
increase in SLC2A1 expression [5, 7]: > 20 fold
increase in expression of ABCB1 [5, 7]: ~2 fold
increase in expression of ABCC1 [5, 7]: ~2 fold
increase in expression of ABCG2 [5, 7]: ~2 fold
upregulation in N1ICD expression [5, 7]: ~8 fold
increase in CDH2 ([5]; clone 10(+CR2), 6d P+4d D and 2d P+4d D+4P vs PBS control): ~2 fold
increase in ABCC1 [5, 8]: 7 fold
increase in ABCG2 [5, 8]: 4 fold
increase in FN1 [5, 8]: ~12 fold
upregulation of CLDN5 [5, 8]: ~2 fold
reduction in CDH5 ([5]; clone 10(+CR2), 6d P+4d D vs PBS control, significant): ~2 fold
reduction in CDH5 ([5]; clone 10(+CR2), other doxycycline-treated conditions vs PBS control, non-significant): ~1.7 fold

CC(=O)c1c(O)c(C)c(O)c(Cc2c(O)c3c(c(C(=O)/C=C/c4ccccc4)c2O)OC(C)(C)C=C3)c1O [rottlerin]
fluorescent albumin accumulation after endocytosis inhibitor pretreatment [6]: but not with rottlerin

Source: patent US20250092369A1, “METHOD FOR IMPROVING TRANSCYTOSIS PROPERTIES OF HUMAN BLOOD-BRAIN BARRIER MODEL” (Wisconsin Alumni Research Foundation, priority 2023, published 2025)
